In patent publication US20030027981A1, “Urokinase-type plasminogen activator receptor” (priority 1989, published 2003):

Tests used:
u-PA = u-PA activity in medium of HT-1080 cultures (immunocapture assay); format: cell-based, human
Procedure: Cell culture supernatants were assayed for pro-u-PA and active u-PA by the following modification of an immunocapture method (Stephens et al., 1988; Stephens et al., 1987). Microtitre wells of polystyrene immunoplates (type 269620, A/S Nunc, Roskilde, Denmark) were coated overnight at 37° C. with 50 μl of a solution of goat IgG antibodies to human u-PA (cat. #398, American Diagnostica). The coating solution contained 2.5 μg of IgG per ml of […] sodium carbonate (pH 9.8). After rinsing, the wells were treated with conditioned medium ([…]) for 2 hours at 23° C., then rinsed again. Half the wells were then treated with 50 μl of freshly prepared 2 μM p-nitrophenyl guanidinobenzoate (NPGB, Sigma) (Danø, K., and E. Reich, “Plasminogen activator from cells transformed by an oncogenic virus—Inhibitors of the activator reaction”, Biochim. Biophys. Acta 566: 138-151, 1979) for 20 minutes at 37° C. The other half (controls) received 50 μl of rinsing buffer (0.05% Tween 20 in PBS). After rinsing, u-PA was assayed in all the wells by addition of 40 μl of plasminogen solution (100 μg/ml in assay buffer consisting of 50 mM sodium glycinate (pH 7.8), 0.1% Triton X-100, 0.1% gelatin and 10 mM 6-aminocaproic acid which also contained a very low concentration of plasmin (10 ng/ml)), and incubation took place for 30 minutes at 37° C. This concentration of plasmin in the plasminogen incubation was sufficient to enable full realization of the potential activity of pro-u-PA (cf. Petersen et al., 1988). The plasmin produced by this incubation was assayed by its thioesterase activity (Green, G. D. G., and E. Shaw, “Thiobenzyl benzyloxycarbonyl-L-lysinate, substrate for a sensitive colorimetric assay for trypsin-like enzymes”, Anal. Biochem. 93: 223-226, 1979) by the addition of 200 μl of a solution containing 200 mM potassium phosphate (pH 7.5), 200 MM KCl, 0.1% Triton X-100, 220 μM Z-lysine thiobenzyl ester (Peninsula Laboratories, Belmont, Calif.) and 220 μM 5,5′-dithiobis(2-nitrobenzoic acid) (Sigma). This mixture was incubated for 30 minutes at 37° C., and the absorbancies of the wells were read at 405 nm. Active u-PA (60,000 IU/mg) was purchased from Calbiochem-Behring (La Jolla, Calif.) and pro-u-PA (potential activity 90,000 IU/mg) was obtained from American Diagnostica.
The following additions were made to cell layers growing in MEM medium (0.5 ml) containing 10% heat-inactivated and plasminogen-depleted fetal calf serum: native human plasminogen (Plg, 40 μg/ml); anti-catalytic monoclonal antibody to human u-PA (10 μg/ml); anti-catalytic monoclonal antibody to human t-PA (10 μg/ml); PAI-2 (titration equivalent of 3.6 UI u-PA/ml); anti-catalytic monoclonal antibody to human plasmin (20 μg/ml); aprotinin (200 KIU/ml); tranexamic acid (TA, as shown). The cultures were incubated for the times shown before assay of cell-bound plasmin. The incubation with plasminogen was used as the 100% control for bound plasmin.
Confluent cell layers in serum medium (0.5 ml) were preincubated for 1 hour at 37° C. with an anti-catalytic monoclonal antibody to human u-PA (10 μg/ml) or PAI-2 (titration equivalent of 3.6 IU u-PA/ml). The cells were then rinsed three times with serum-free MEM medium before incubation for 3 hours at 37° C. with MEM medium containing 10% heat-inactivated and plasminogen-depleted fetal calf serum and native human plasminogen (Plg, 40 μg/ml). The incubation with plasminogen was used as the 100% control for bound plasmin while the control for u-PA was the incubation without plasminogen.

cell-bound pro-u-PA = experiment: Pro-u-PA index of cell-bound u-PA on HT-1080 cells (immunocapture assay with NPGB step); format: cell-based, human; conditions: for Pro-u-PA index (%): 2 h, serum medium, all with Plg 40 μg/ml, aprotinin (200 KIU/ml), anti-Plg-1 (20 μg/ml), TA (100 μM) rows also with anti-PAI-1 10 μg/ml
Procedure: FIG. 27. Activation of cell-bound u-PA proenzyme in serum medium after the addition of plasminogen. Confluent layers of HT-1080 cells were incubated with MEM medium containing 10% heat-inactivated and plasminogen-depleted fetal calf serum and native human plasminogen (40 μg/ml). After the time intervals shown, aprotinin (200 KIU/ml) was added and the rinsed cells were treated with acid-glycine to recover the bound fraction of u-PA. The u-PA in the neutralized eluate was assayed by an immunocapture method, using an NPGB inactivation step to determined the pro-u-PA index (see Methods).
Cell culture supernatants were assayed for pro-u-PA and active u-PA by the following modification of an immunocapture method (Stephens et al., 1988; Stephens et al., 1987). Microtitre wells of polystyrene immunoplates (type 269620, A/S Nunc, Roskilde, Denmark) were coated overnight at 37° C. with 50 μl of a solution of goat IgG antibodies to human u-PA (cat. #398, American Diagnostica). The coating solution contained 2.5 μg of IgG per ml of […] sodium carbonate (pH 9.8). After rinsing, the wells were treated with conditioned medium ([…]) for 2 hours at 23° C., then rinsed again. Half the wells were then treated with 50 μl of freshly prepared 2 μM p-nitrophenyl guanidinobenzoate (NPGB, Sigma) (Danø, K., and E. Reich, “Plasminogen activator from cells transformed by an oncogenic virus—Inhibitors of the activator reaction”, Biochim. Biophys. Acta 566: 138-151, 1979) for 20 minutes at 37° C. The other half (controls) received 50 μl of rinsing buffer (0.05% Tween 20 in PBS). After rinsing, u-PA was assayed in all the wells by addition of 40 μl of plasminogen solution (100 μg/ml in assay buffer consisting of 50 mM sodium glycinate (pH 7.8), 0.1% Triton X-100, 0.1% gelatin and 10 mM 6-aminocaproic acid which also contained a very low concentration of plasmin (10 ng/ml)), and incubation took place for 30 minutes at 37° C. This concentration of plasmin in the plasminogen incubation was sufficient to enable full realization of the potential activity of pro-u-PA (cf. Petersen et al., 1988). […] This mixture was incubated for 30 minutes at 37° C., and the absorbancies of the wells were read at 405 nm. […]
Pro-u-PA and active u-PA bound to the cell layer were recovered for immunocapture assays by the same method as was used in the metabolic labelling (see above). […] For conditioned medium and cell-bound u-PA, the u-PA activity assayed after NPGB treatment was expressed as a percentage of the total activity obtained without NPGB treatment, and this percentage used as an index of pro-u-PA content (pro-u-PA index). […]

[1] = 3 h, serum medium with Plg 40 μg/ml, additions as b555, control without Plg = 100
[2] = 17 h, serum medium with Plg 40 μg/ml, additions as b555, control without Plg = 100

| Molecule | u-PA activity in medium (%) (u-PA; 3 h, Plg 40 μg/ml + TA 10 μM) | u-PA activity in medium (%) (u-PA; 3 h, Plg 40 μg/ml + TA 100 μM) | u-PA activity in medium (%) (u-PA; 17 h, Plg 40 μg/ml + TA 10 μM) | u-PA activity in medium (%) (u-PA; 17 h, Plg 40 μg/ml + TA 100 μM) | Pro-u-PA index (%) (cell-bound pro-u-PA) | u-PA activity in medium (%) (u-PA; [1]) | u-PA activity in medium (%) (u-PA; [2]) | Proportion of total surface-bound u-PA present as pro-u-PA (cell-bound pro-u-PA; cells incubated with human plasminogen 40 μg/ml in serum medium, plasminogen-free cultures approximately 90%) | u-PA activity in medium (%) (u-PA; cells preincubated 1 h with inhibitor, rinsed, then 3 h with Plg 40 μg/ml in serum medium) |
| --- | --- | --- | --- | --- | --- | --- | --- | --- | --- |
| NC[C@H]1CC[C@H](C(=O)O)CC1 [TA, tranexamic acid] | 116 | 92 | 87 | 95 | 88 |  |  |  |  |
| Plg: native human plasminogen (glutamic acid N-terminal) purified from human plasma on lysine-Sepharose |  |  |  |  | 50 | 111 | 83 | approximately 10% |  |
| aprotinin |  |  |  |  | 93 | 93 | 99 |  |  |
| PAI-2: human type-2 plasminogen activator inhibitor purified from U937 cells (protein, UniProt P05120 1-415, looked up) Plasminogen activator …: MEDLCVANTLFALNLFKHLAKASPTQNLFLSPWSISSTMAMVYMGSRGSTEDQMAKVLQFNEVGANAVTPMTPENFTSCGFMQQIQKGSYPDAILQAQAADKIHSSFRSLSSAINASTGNYLLESVNKLFGEKSASFREEYIRLCQKYYSSEPQAVDFLECAEEARKKINSWVKTQTKGKIPNLLPEGSVDGDTRMVLVNAVYFKGKWKTPFEKKLNGLYPFRVNSAQRTPVQMMYLREKLNIGYIEDLKAQILELPYAGDVSMFLLLPDEIADVSTGLELLESEITYDKLNKWTSKDKMAEDEVEVYIPQFKLEEHYELRSILRSMGMEDAFNKGRANFSGMSERNDLFLSEVFHQAMVDVNEEGTEAAAGTGGVMTGRTGHGGPQFVADHPFLFLIMHKITNCILFFGRFSSP |  |  |  |  |  | 89 | 77 |  | 86 |
